Test results: article PMC5677366, “Cyclic di-GMP differentially tunes a bacterial flagellar motor through a novel class of CheY-like regulators” (eLife, 2017)
“Also recorded” adds a separate entry of the source.

Experiments:
StrepII-CleD [1] = molecular target: T1, StrepII-CleD (Caulobacter vibrioides, UniProt Q9A3V2); assay: UV cross-linking competition with non-labeled nucleotides; format: binding, Caulobacter crescentus; conditions: 1 µM StrepII-CleD, 0.25 µM 33P-labelled c-di-GMP
Method: Synthesis of radiolabeled c-di-GMP using YdeH and UV light-induced cross-linking experiments in conical 96-well plates (Greiner Bio-One) were performed as described recently ([Steiner et al., 2013]; [Christen et al., 2005]). […] As a control BSA was included. For competition experiments unlabeled nucleotides were incubated with the protein for 15 min prior the addition of c-[^33P] -di-GMP. The 96-well plates were then UV-irradiated at 254 nm for 20 min using a Bio-Link crosslinker (Vilber Lourmat, France). After addition of 5 μl loading dye and boiling for 5 min the samples were subjected to SDS-PAGE. Proteins were analyzed by Coomassie staining and autoradiography. Band intensities were quantified using the ImageJ64 software and the data were fitted using GraphPad Prism version 5.04 for Windows (GraphPad Software, San Diego California USA). The Kd was calculated by non-linear regression using the ‘One site – Total binding’ equation.

His-CleD (aa 19–269) = His-CleD (aa 19–269) (Caulobacter vibrioides, UniProt Q9A3V2); assay: Microscale thermophoresis (MST); format: binding, Caulobacter crescentus
Method: (§1) MST experiments were carried out in a Monolith NT.115 device using standard treated capillaries (NanoTemper Technologies). Fluorescence changes resulting from thermophoresis were recorded using blue channel optics of the instrument (λex = 470 ± 15 nm, λem = 520 ± 10 nm) for the 30 s period of infrared laser heating at 40% of maximum laser power followed by a 5 s of cooling period. Measurements were performed in a buffer containing 50 mM Tris-HCl, pH 8.0, 100 mM NaCl, 5 mM MgCl2, 1 mM DTT and 0.1% Tween 20. 2'-O-(6-[Fluoresceinyl]aminohexylcarbamoyl)-cyclic diguanosine monophosphate (2’fluo-AHC-c-di-GMP, Biolog, Bremen, Germany) was added to probe the binding affinity of CleD domains. A 16-point 1:1 serial dilution series of proteins was titrated against a fixed concentration (60 nM) of 2’fluo-AHC-c-di-GMP. Data were evaluated in the program ProFit (Quansoft, Zurich, Switzerland) and fitted using the Hill equation.

His-CleD (aa 19–262) = His-CleD (aa 19–262) (Caulobacter vibrioides, UniProt Q9A3V2); assay: MST; format: binding, Caulobacter crescentus; conditions: 60 nM ligand; variant lacking part of the CTR
Method: as §1

[2] = system: isolated ARR of CleA fused to His-SUMO; assay: MST; format: binding, Caulobacter crescentus
Method: as §1

His-SUMO R156A ARRCleD = assay: MST; format: binding, Caulobacter crescentus
Method: as §1

His-CleD-rec (aa 19–141) = His-CleD-rec (aa 19–141) (Caulobacter vibrioides, UniProt Q9A3V2); assay: MST; format: binding, Caulobacter crescentus
Method: as §1

His-SUMO R169A ARRCleD = His-SUMO R169A ARRCleD (Caulobacter vibrioides, UniProt Q9A3V2, R169A); assay: MST; format: binding, Caulobacter crescentus
Method: as §1

[3] = molecular target: His-CleD-rec-ARR (aa 19–174) (Caulobacter vibrioides, UniProt Q9A3V2); assay: MST; format: binding, Caulobacter crescentus
Method: as §1

[4] = molecular target: EcCheY-ARR (wild-type ARR of CleD fused to E. coli CheY) (Caulobacter vibrioides, UniProt Q9A3V2); assay: MST; format: binding; conditions: read-out: apparent Kd
Method: as §1

His-SUMO = molecular target: T2, His-SUMO (Saccharomyces cerevisiae, UniProt Q12306); assay: MST; format: binding
T2 construct: made in house; host or cells: E. coli BL21 (DE3)
Method: as §1

His-CheY = molecular target: T3, His-CheY (Escherichia coli, UniProt P0AE67); assay: MST; format: binding, E. coli
T3 construct: made in house; host or cells: E. coli BL21 (DE3)
Method: as §1

[5] = molecular target: EcCheY-ARR with R156A mutant ARR (Caulobacter vibrioides, UniProt Q9A3V2, R156A); assay: MST; format: binding, E. coli; conditions: read-out: apparent Kd
Method: as §1

CleD = assay: 1H-15N HSQC NMR of 15N-CleD with FliM peptides; format: binding, Caulobacter crescentus
Method: The standard two-dimensional spectra ^1H-^15N HSQC of His-CleD with or without peptides were performed on a ^15N isotope labeled His-CleD. The His-CleD (400 µM) sample was in 20 mM sodium phosphate buffer at pH 7.0, 200 mM NaCl, 1 mM MgCl2, 5 mM 2-Mercaptoethanol, 0.02% NaN3 (w/v), and 5% (v/v) D2O with a sample volume of 270 μL. c-di-GMP was titrated to the protein sample in 2.5-fold excess. The FliM peptide from residue Ala47 to Gly62 contains an additional Trp at the N-terminus to measure concentration and to increase solubility (WASERILNQDEIDSLLG). As the corresponding ID57_WA peptide contains a Trp we used the following sequence ASERILNQDEWASLLG. Both peptides were purchased from JPT Peptide Technologies, and dissolved in 200 mM NaCl, 20 mM sodium phosphate buffer at pH 7.0, 1 mM MgCl2, 5 mM β-Mercaptoethanol, 0.02%NaN3 (w/v), and 5% (v/v) D2O. With homonuclear 2D-TOCSY and 2D-NOESY experiments the peptide proton resonances were assigned. It was confirmed, that both peptides were stable in this buffer and unfolded (data not shown). The spectrum of the purified CleD protein was recorded in the same buffer as the FliM peptides.

CleD-GFP [6] = molecular target: T4, CleD-GFP (Caulobacter vibrioides, UniProt Q9A3V2); assay: Isothermal titration calorimetry (ITC); format: binding, Caulobacter crescentus; conditions: ITC at 10°C
Method: (§2) ITC experiments were performed on a VP-ITC MicroCalorimeter (MicroCal, Northampton, MA, USA). Protein samples, c-di-GMP and buffer (50 mM Tris-HCl, pH 8.0, 100 mM NaCl, 5 mM MgCl2, 1 mM DTT) were degassed for 15 min prior to filling into sample cell and syringe. The sample cell contained 7.4 µM of His-CleD-GFP and the syringe contained 69.7 µM of cdG. The concentrations were determined in a spectrophotometer using a cuvette with 1 cm path length. All experiments were carried out at 10 °C with 30 injections (10 µl each) with a 250 s interval. Stir rate was 300 rpm. The data were evaluated using ITC Data Analysis in ORIGIN (MicroCal) provided by the manufacturer. The area under each peak was integrated and fitted using the built-in one-site model by non-linear least squares regression analysis.

StrepII-CleD [7] = molecular target: T1, StrepII-CleD; assay: UV cross-linking with radiolabeled c-di-GMP; format: binding, Caulobacter crescentus
Method: Synthesis of radiolabeled c-di-GMP using YdeH and UV light-induced cross-linking experiments in conical 96-well plates (Greiner Bio-One) were performed as described recently ([Steiner et al., 2013]; [Christen et al., 2005]). Briefly, 2 μM protein was incubated for 10 min at room temperature with c-[^33P]-di-GMP in a total volume of 20 μl using PBS as buffer. As a control BSA was included. For competition experiments unlabeled nucleotides were incubated with the protein for 15 min prior the addition of c-[^33P] -di-GMP. The 96-well plates were then UV-irradiated at 254 nm for 20 min using a Bio-Link crosslinker (Vilber Lourmat, France). After addition of 5 μl loading dye and boiling for 5 min the samples were subjected to SDS-PAGE. Proteins were analyzed by Coomassie staining and autoradiography. Band intensities were quantified using the ImageJ64 software and the data were fitted using GraphPad Prism version 5.04 for Windows (GraphPad Software, San Diego California USA). The Kd was calculated by non-linear regression using the ‘One site – Total binding’ equation.

CleD-GFP [8] = molecular target: T4, CleD-GFP; assay: 1H-NMR Jump-return imino proton spectra; format: binding, Caulobacter crescentus; conditions: difference spectrum with and without c-di-GMP, four imino H1 resonances
Method: NMR spectra were recorded at 298 K on Bruker DRX 600, and DRX 900 NMR spectrometers equipped with TXI and TCI probe heads, respectively. The one dimensional NMR spectra were recorded with a Jump-return echo sequence ([Sklenár et al., 1987]) optimized for resonances at around 12 ppm. For the complex His-CleD-GFP·c-di-GMP and apo His-CleD-GFP 16384 scans were recorded. The NMR samples were prepared as follows. The sample of apo His-CleD-GFP (30 μM) was prepared in 100 mM NaCl, 20 mM sodium phosphate buffer at pH 6.5, 0.01% NaN3 (w/v), and 5% (v/v) D2O as sample volume of 250 μL. Complex CleD-GFP·c-di-GMP: the ligand was titrated to the apo His-CleD-GFP sample from a 20 mM stock solution in twofold excess.

His-CleD_R113A-GFP = His-CleD_R113A-GFP (Caulobacter vibrioides, UniProt Q9A3V2, R113A); assay: ITC with R113A mutant; format: binding, Caulobacter crescentus
Method: as §2

[9] = system: R156A mutant variant of CleD-GFP; assay: ITC with R156A mutant; format: binding, Caulobacter crescentus
Method: as §2

T1 sequence (Q9A3V2 entry or part of it): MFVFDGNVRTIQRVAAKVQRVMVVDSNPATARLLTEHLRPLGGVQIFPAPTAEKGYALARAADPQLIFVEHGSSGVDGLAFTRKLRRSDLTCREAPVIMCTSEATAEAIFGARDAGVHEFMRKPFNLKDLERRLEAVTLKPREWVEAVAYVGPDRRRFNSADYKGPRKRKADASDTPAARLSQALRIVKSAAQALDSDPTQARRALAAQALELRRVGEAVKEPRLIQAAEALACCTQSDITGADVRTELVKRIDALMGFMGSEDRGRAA
T4 sequence (Q9A3V2 entry or part of it): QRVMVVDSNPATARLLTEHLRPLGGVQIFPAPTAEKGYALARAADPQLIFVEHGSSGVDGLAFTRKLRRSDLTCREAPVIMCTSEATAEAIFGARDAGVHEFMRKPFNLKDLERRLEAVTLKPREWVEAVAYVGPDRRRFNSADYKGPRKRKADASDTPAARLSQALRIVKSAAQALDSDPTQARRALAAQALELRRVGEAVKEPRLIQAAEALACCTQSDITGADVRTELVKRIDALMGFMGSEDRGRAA
Chain of His-CleD-rec (aa 19–141) (Q9A3V2 entry or part of it): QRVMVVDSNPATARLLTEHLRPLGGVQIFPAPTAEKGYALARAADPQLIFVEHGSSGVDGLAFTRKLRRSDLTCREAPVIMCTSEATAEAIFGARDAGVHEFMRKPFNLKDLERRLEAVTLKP
Chain of His-CleD-rec-ARR (aa 19–174) (Q9A3V2 entry or part of it): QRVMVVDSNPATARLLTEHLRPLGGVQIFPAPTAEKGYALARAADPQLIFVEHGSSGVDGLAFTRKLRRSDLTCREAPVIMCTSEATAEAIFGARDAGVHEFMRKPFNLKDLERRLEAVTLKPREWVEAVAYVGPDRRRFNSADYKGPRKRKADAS
T2 sequence (Q12306 whole entry): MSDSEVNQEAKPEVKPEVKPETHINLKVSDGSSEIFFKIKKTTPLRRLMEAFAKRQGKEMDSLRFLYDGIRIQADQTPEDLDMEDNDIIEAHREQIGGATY
Chain of EcCheY-ARR with R156A mutant ARR (Q9A3V2 entry or part of it R156A): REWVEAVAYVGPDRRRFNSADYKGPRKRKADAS
Chain of EcCheY-ARR with R156A mutant ARR (P0AE67 2-129, further chain): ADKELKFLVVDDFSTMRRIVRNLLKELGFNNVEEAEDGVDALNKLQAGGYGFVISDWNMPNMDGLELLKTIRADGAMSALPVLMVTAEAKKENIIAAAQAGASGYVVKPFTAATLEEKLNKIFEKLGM
Chain of His-SUMO R169A ARRCleD (Q9A3V2 entry or part of it R169A): as the sequence (Q9A3V2 entry or part of it R156A) above
Chain of His-CleD (aa 19–262) (Q9A3V2 entry or part of it): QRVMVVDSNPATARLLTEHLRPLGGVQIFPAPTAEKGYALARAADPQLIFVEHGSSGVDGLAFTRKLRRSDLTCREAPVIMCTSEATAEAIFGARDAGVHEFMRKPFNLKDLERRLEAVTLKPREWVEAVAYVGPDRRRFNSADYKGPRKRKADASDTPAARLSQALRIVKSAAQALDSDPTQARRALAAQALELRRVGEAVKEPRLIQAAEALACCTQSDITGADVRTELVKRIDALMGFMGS
Chain of EcCheY-ARR (wild-type ARR of CleD fused to E. coli CheY) (P0AE67 2-129): as the sequence (P0AE67 2-129, further chain) above
Chain of EcCheY-ARR (wild-type ARR of CleD fused to E. coli CheY) (Q9A3V2 entry or part of it): as the sequence (Q9A3V2 entry or part of it R156A) above
T3 sequence (P0AE67 whole entry): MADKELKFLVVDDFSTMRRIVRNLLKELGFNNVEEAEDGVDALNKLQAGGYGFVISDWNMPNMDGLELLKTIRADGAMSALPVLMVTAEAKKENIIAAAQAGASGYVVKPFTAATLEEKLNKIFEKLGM

Compound: Nc1nc2c(ncn2[C@@H]2O[C@H](COP(=O)(O)O[C@H]3[C@@H](O)[C@H](n4cnc5c(=O)[nH]c(N)nc54)O[C@@H]3COP(=O)(O)O)[C@@H](O)[C@H]2O)c(=O)[nH]1 [pGpG]
- concentration required for a similar reduction of 33P-labelled c-di-GMP binding, relative to non-labeled c-di-GMP (StrepII-CleD [1]): 1000 fold

Compound: 2'-O-(6-[Fluoresceinyl]aminohexylcarbamoyl)-cyclic diguanosine monophosphate [flr-cdG]
- Kd (His-CleD (aa 19–269); 60 nM ligand): 1200 nM
- Kd relative to affinities determined for c-di-GMP itself (His-CleD (aa 19–269); full-length CleD and variant lacking part of the CTR): roughly 10 fold
- Kd (His-CleD (aa 19–262)): 1300 nM
- binding (in words) [2]: failed to bind
- binding (in words) (His-SUMO R156A ARRCleD): strongly reduced binding; also recorded: completely abolished
- dissociation constant relative to full-length protein (His-CleD-rec (aa 19–141)): 40 fold
- Kd (His-CleD-rec (aa 19–141); 60 nM ligand): 41700 nM
- reduction of binding relative to wild-type ARR (His-SUMO R169A ARRCleD): about 5 fold
- dissociation constant relative to full-length protein [3]: 5 fold
- Kd ([3]; 60 nM ligand): 6200 nM
- Kd [4]: 14800 nM
- binding (in words) (His-SUMO): not SUMO itself were able to bind flr-cdG
- binding (in words) (His-CheY): failed to bind
- Kd [5]: 471000 nM

Compound: WASERILNQDEIDSLLG [FliM wild-type peptide, FliM peptide from residue Ala47 to Gly62 with an additional Trp at the N-terminus]
- number of CleD resonances with shift changes (CleD; in the presence of c-di-GMP, peptide in two-fold excess): approximately 10 resonances
- HSQC spectrum change (in words) (CleD; without c-di-GMP): indistinguishable from the spectrum recorded for CleD alone

Compound: Nc1nc2c(ncn2[C@@H]2O[C@H](COP(=O)(O)OP(=O)(O)OP(=O)(O)O)[C@@H](O)[C@H]2O)c(=O)[nH]1 [GTP]
- concentration required for a similar reduction of 33P-labelled c-di-GMP binding, relative to non-labeled c-di-GMP (StrepII-CleD [1]): 1000 fold

Compound: ASERILNQDEWASLLG [FliM_ID57WA mutant peptide, FliM residues 47–62 peptide with ID57WA substitution]
- HSQC spectrum change (in words) (CleD; with c-di-GMP): indistinguishable from the spectrum recorded for CleD alone

Compound: Nc1nc2c(ncn2[C@@H]2O[C@@H]3COP(=O)(O)O[C@H]4[C@@H](O)[C@H](n5cnc6c(=O)[nH]c(N)nc65)O[C@@H]4COP(=O)(O)O[C@H]3[C@H]2O)c(=O)[nH]1 [c-di-GMP, Cyclic di-GMP]
- Kd (CleD-GFP [6]): 86 nM
- Kd (StrepII-CleD [7]): 212 nM
- binding (in words) (StrepII-CleD [7]; purified Strep-tagged CleD, radiolabeled c-di-GMP): high affinity binding in the nanomolar range
- competition with labeled probe for binding (in words) (StrepII-CleD [1]): effectively compete; also recorded: equimolar amounts of non-labeled c-di-GMP reduced binding
- binding stoichiometry (CleD-GFP [8]): two molecules of c-di-GMP are bound to one CleD protomer; also recorded: one c-di-GMP dimer to one protein monomer
- Kd (His-CleD_R113A-GFP): 221 nM
- increase of the Kd as compared to wild-type CleD (His-CleD_R113A-GFP; ITC): 3 fold
- binding (in words) [9]: completely abolished
